# Test results reported in patent US20150051212A1, “Compositions And Methods For Inhibiting Drusen” (Regenerative Research Foundation, priority 2012, published 2015).
# Columns and labels:
# [1] = system: drusen-associated protein transcripts; experiment: Reduced drusen expression: qPCR of drusen-associated protein transcripts in stressed RPE; type: cell-based, human; details: FIG. 4
# Method: RNA is isolated from the RPE cells at the end of the 24 hour rest period, according to the protocol in the Qiagen RNeasy Micro/Mini Kits. Once isolated, the RNA is converted into cDNA using a high-capacity RNA to cDNA conversion kit (Applied Biosystems). The resulting cDNA is then used in a qPCR assay, to quantitate expression of various drusen-associated genes, including genes encoding: αA-crystallin, αB-crystallin, βB1-crystallin, βB2-crystallin, βs-crystallin, αA4-crystallin, APP, APOE, APOJ, BACE-1, PS1, VEGF, VEGF R1, VEGF R2, PEDF, CC9, serum amyloid P, TIMP3, vitronectin, and H2AE. The expression level of one or more housekeeping genes, such as ribosomal S18 and GAPDH, is also quantitated. Forward and reverse PCR primers having the nucleotide sequences shown in Table 2, below, may be used with a SYBR green reporter from Applied Biosystems.
# [2] = O'Hare et al. 2005 Cancer Cell; cited from earlier work
# RPESC-derived RPE cells [3] = experiment: Restored viability: LDH cytotoxicity assay in stressed RPESC-derived RPE
# RPESC-derived RPE cells [4] = experiment: Restored resistance: transepithelial resistance of RPESC-derived RPE after oxidative stress; type: cell-based, human; details: oxidative stress by TBHP; FIG. 3
# From the text: The ability of a test substance to restore transepithelial resistance may also be determined in the RPE cell-based assay. RPE cells are a tight junctioned epithelia and compromised epithelial integrity is a hallmark of RPE-associated diseases, such as, e.g., dry AMD.
# Restored resistance. Healthy RPE form tight functioned epithelia layers with high electrical resistance. Compromising the integrity of these layers decreases the resistance and is indicative of a diseased state, such as dry or other forms of AMD.
# Preferably, each well of primary human RPE cells has a resistance greater than 200 Ω·cm^2 before beginning the experiment. Resistance of RPE treated with a test compound is measured again, after oxidative stress, and compared to the resistance in untreated RPE subjected to the same oxidative stress procedure.
compound,measurement,setting,value
COc1cc(Nc2c(C#N)cnc3cc(OCCCN4CCN(C)CC4)c(OC)cc23)c(Cl)cc1Cl [Bosutinib],effect on TBHP-induced up-regulation of drusen-associated protein transcripts,[1],attenuates TBHP-induced up-regulation of drusen-associated protein transcripts
Cc1cn(-c2cc(NC(=O)c3ccc(C)c(Nc4nccc(-c5cccnc5)n4)c3)cc(C(F)(F)F)c2)cn1 [AMN107],potency relative to imatinib mesylate,[2],20 fold
Ponatinib,reduction in cell death compared to the cell lysis control,RPESC-derived RPE cells [3]; 500 nM,about 80%
same,effect on cytotoxicity,"RPESC-derived RPE cells [3]; 1 μM, FIG. 2",no effect on cytotoxicity
"Cc1ccc(NC(=O)c2ccc(CN3CCN(C)CC3)cc2)cc1Nc1nccc(-c2cccnc2)n1 [Gleevec, 4-[(4-methylpiperazin-1-yl)methyl]-N-(4-methyl-3-{[4-(pyridin-3-yl)pyrimidin-2-yl]amino}phenyl)benzamide]",cells viability restored compared to untreated controls,RPESC-derived RPE cells [3]; 1 µM,100%
same,cell death in treated cells,"RPESC-derived RPE cells [3]; 1 μM, 100% cell death in untreated controls",0%
same,effect on decrease in transepithelial resistance after oxidative stress,RPESC-derived RPE cells [4],attenuate the decrease in transepithelial resistance
same,effect on TBHP-induced up-regulation of drusen-associated protein transcripts,[1],attenuates TBHP-induced up-regulation of drusen-associated protein transcripts
